These are literature values, as cited in patent publication US20080069870A1, “Controlled Release Compositions Comprising a Cephalosporin for the Treatment of a Bacterial Infection” (Elan Corporation Pic, priority 2005, published 2008).

The conditions of data set [1]: oral administration, after meals vs before meals.

The structures appear in SMILES notation. Like-named read-outs stand apart in the source and are kept apart here.

For the compound `CC/C=C(\C(=O)N[C@@H]1C(=O)N2C(C(=O)OCOC(=O)C(C)(C)C)=C(COC(N)=O)CS[C@H]12)c1csc(N)n1.Cl` [CFPN-PI, 2,2-Dimethylpropanoyloxymethyl (6R, 7R)-7-[(Z)-2-(2-aminothiazol-4-yl)pent-2-enylamino]-3-carabmoyloxymethyl-8-oxo-5-thia-1-azabicyclo[4.2.0]oct-2-ene-2-carboxylate monohydrochoride monohydrate], the solubility entry is “freely soluble” (in N, N-dimethylformamide); “practically insoluble” (in diethyl ether); “sparingly soluble” (in ethanol); “freely soluble” (in methanol); “only slightly soluble” (in water). Besides, in data set [1], the absorption result is “better after meals than before meals”.
